Reference: EP1935986B1, “Luminogenic and fluorogenic compounds and methods to detect molecules or conditions” (priority 2005, dated 2006)
Blank lines part the entries; values can stand above or below the molecule they belong to.

Legend:
porcine esterase = experiment: Two-step luminescent carboxylesterase assay with D-luciferin esters; assay type: biochemical; settings: result in words
From the text: D-luciferin esters were substrates for carboxylesterases in a two step luminescent assay format similar to that used for P450s. […] Though signals varied between P450 preparations no P450 preparation was much brighter than the control. It seems likely then that the signals were not due to P450 activity in the preparations hut rather, variable amounts of carboxyl esterase activities. Methyl, ethyl and picolinyl esters of D-luciferin were also characterized as substrates for a purified preparation of porcine esterase without any p450. In this format each ester linked group was cleaved by the esterase to yield D-luciferin that in turn reacted with luciferase to make light.

CYP3A7 = CYP3A7 (Homo sapiens, UniProt P24462); experiment: Two-step luminescent P450 screen of luciferin derivatives; settings: result in words
CYP1A2 = target: T1, CYP1A2 (Homo sapiens, UniProt P05177); experiment: as above; assay type: biochemical; settings: 50 µM substrate, 1 pmole P450, result in words
T1 construct: purchased Discovery Labware (BD/Gentest); host or cells: insect cell expression system (membrane fractions)
T1 sequence (P05177 2-516 limits assumed): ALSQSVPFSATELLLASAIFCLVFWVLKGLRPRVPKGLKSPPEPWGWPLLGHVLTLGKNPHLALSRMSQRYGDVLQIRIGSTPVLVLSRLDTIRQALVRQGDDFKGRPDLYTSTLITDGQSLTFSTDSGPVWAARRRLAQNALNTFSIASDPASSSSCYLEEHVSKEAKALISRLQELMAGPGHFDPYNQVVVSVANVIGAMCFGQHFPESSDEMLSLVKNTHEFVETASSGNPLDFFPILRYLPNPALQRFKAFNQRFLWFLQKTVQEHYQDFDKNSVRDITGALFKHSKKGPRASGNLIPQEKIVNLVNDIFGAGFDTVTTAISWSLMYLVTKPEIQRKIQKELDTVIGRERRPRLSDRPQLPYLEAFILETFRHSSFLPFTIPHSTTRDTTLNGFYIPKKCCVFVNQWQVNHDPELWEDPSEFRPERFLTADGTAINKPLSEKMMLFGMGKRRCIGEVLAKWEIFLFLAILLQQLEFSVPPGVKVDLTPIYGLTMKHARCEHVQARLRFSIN
Method: (§1) P450s are Supersomes™ purchased from Discovery Labware (BD/Gentest). […] HLM is human liver microsomes.
(§2) 1X substrate concentration: 50 µM.

CYP2C9 = target: T2, CYP2C9 (Homo sapiens, UniProt P11712); experiment: as above; assay type: biochemical; settings: 50 µM substrate, 1 pmole P450, result in words
T2 construct: purchased Discovery Labware (BD/Gentest); host or cells: insect cell expression system (membrane fractions)
Method: as §1, §2

CYP4A11 = target: T3, CYP4A11 (Homo sapiens, UniProt Q02928); experiment: as above; assay type: biochemical; settings: result in words
T3 construct: purchased Discovery Labware (BD/Gentest); host or cells: insect cell expression system (membrane fractions)
T3 sequence (Q02928 5-519): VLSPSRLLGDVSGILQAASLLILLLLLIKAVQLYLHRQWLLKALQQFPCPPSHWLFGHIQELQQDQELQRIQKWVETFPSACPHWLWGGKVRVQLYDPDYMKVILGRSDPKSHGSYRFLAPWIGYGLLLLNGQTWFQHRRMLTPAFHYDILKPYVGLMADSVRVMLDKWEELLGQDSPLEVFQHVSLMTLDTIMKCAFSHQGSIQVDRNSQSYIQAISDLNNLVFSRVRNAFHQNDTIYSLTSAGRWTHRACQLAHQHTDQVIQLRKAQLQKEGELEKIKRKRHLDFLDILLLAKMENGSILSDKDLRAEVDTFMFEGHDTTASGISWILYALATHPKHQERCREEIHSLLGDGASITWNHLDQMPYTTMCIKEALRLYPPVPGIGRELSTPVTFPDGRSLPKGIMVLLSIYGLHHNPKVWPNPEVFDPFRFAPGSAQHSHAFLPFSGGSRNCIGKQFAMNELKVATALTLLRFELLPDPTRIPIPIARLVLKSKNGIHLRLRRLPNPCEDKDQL
Method: as §1, §2

CYP1A1 = target: T4, CYP1A1 (Homo sapiens, UniProt P04798); experiment: as above; settings: 50 µM substrate, 1 pmole P450, 37°C 30 minutes; result in words
T4 sequence (P04798 1-512): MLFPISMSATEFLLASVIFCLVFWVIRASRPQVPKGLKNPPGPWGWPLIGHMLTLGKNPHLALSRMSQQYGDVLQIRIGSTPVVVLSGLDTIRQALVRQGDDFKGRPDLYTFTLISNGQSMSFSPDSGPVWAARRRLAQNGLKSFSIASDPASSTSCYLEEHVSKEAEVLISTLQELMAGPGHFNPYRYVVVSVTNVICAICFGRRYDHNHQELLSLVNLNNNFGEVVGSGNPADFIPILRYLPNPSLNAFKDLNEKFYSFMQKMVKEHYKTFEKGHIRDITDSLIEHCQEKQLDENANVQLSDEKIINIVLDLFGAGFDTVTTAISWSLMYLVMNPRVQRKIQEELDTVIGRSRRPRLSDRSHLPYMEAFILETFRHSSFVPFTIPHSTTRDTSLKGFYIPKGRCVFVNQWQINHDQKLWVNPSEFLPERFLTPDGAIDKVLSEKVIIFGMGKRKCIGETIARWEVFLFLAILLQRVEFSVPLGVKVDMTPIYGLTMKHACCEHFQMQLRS

CYP2C8 = target: T5, CYP2C8 (Homo sapiens, UniProt P10632); experiment: as above; settings: 50 µM substrate, 1 pmole P450, result in words
T5 sequence (P10632 1-490): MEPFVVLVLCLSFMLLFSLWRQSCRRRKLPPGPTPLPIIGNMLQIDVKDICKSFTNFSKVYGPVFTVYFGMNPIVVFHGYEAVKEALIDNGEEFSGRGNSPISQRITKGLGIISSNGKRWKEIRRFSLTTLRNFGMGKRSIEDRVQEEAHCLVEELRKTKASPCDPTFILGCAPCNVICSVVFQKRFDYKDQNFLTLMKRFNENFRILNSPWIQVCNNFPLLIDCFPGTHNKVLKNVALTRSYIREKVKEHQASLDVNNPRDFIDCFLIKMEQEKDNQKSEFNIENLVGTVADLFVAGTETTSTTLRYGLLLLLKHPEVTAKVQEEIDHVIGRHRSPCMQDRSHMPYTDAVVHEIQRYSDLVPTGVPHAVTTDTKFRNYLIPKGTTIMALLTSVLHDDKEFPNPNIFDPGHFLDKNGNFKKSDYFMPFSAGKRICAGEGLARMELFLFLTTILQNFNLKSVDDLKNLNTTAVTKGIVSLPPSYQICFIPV

CYP2C19 = target: T6, CYP2C19 (Homo sapiens, UniProt P33261); experiment: as above; assay type: biochemical; settings: result in words
T6 construct: purchased Discovery Labware (BD/Gentest); host or cells: insect cell expression system (membrane fractions)
Method: as §1, §2
(§3) For Figure 20, 1 or 5 picomoles of recombinant CYP2D6 or CYP2C19 membrane fractions from an insect cell expression system (SupersomesTM, Discovery Labware) were incubated at 37°C for 60 minutes with 200 µM D-luciferin 6' methyl ether (luciferin-ME) in 50 mM (CYP2C19) or 100 mM (CYP2D6) KPO4 (pH 7.4) with an NADPH regenerating system (as described above) in a volume of 50 µl. […] For Figure 20, the panel of human P450s was screened as described above.

CYP2D6 = target: T7, CYP2D6 (Homo sapiens, UniProt P10635); experiment: as above; assay type: biochemical; settings: result in words
T7 construct: purchased Discovery Labware (BD/Gentest); host or cells: insect cell expression system (membrane fractions)
Method: as §1, §2, §3

QuantiLum Luciferase = target: T8, QuantiLum Luciferase (Photinus pyralis, UniProt P08659); experiment: Scaffolds: light emission of luciferin derivatives with QuantiLum luciferase alone, + Co A, + DTT, + Co A and DTT; assay type: biochemical, firefly
T8 construct: purchased Promega Corporation E170
Method: The DTT, Coenzyme A, and QuantiLum stock solutions are the same as those described herein.
This solution was diluted 1:1 with water to produce an enzyme solution labeled "No addition." This solution was diluted 1:1 with 400 mM DTT, pH 8.0 to produce a solution labeled +DTT. This solution was diluted 1:1 with 4 mM Coenzyme A to produce a solution labeled + Co A. Finally, this solution was diluted 1:1 with a solution having both 4 mM Coenzyme A and 400 mM DTT to produce a solution labeled +Co A & DTT.
50 µl samples of these solutions were placed in the wells of luminometer microtiter plates, row A to row G, respeutivly. Row H of the plates was given 50 µl of water.
Reactions in these plates were initiated by addition of 50 µl of solution containing QuantiLum luciferase using a 12 channel micropipette. The solutions added to the rows were: columns 1, 5, and 9 - no addition solution; columns 2, 6, and 10 - + Co A solution; columns 3, 7, and 11 + DTT solution, and; columns 4, 8, and 12 - + Co A and DTT solution. After addition of the enzyme solution to the first row on every plate, a timer was started. After addition of the enzyme solution to the last row on each plate, the plate was sealed and read on a Veritas luminometer.

T8 sequence (P08659 whole entry): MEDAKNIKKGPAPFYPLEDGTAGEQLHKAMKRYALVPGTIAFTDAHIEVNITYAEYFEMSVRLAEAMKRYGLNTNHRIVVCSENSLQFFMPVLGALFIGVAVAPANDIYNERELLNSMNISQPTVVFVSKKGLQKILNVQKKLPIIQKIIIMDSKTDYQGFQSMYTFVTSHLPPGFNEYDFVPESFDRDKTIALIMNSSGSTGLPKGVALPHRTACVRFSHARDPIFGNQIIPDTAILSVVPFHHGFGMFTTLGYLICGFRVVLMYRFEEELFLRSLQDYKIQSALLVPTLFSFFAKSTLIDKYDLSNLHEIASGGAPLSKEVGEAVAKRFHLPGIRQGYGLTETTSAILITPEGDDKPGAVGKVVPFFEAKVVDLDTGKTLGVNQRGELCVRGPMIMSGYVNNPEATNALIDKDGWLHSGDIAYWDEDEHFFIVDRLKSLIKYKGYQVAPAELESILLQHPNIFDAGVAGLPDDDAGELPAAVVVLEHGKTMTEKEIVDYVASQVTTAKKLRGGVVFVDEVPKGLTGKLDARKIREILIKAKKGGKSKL
CYP3A7, sequence (P24462 whole entry): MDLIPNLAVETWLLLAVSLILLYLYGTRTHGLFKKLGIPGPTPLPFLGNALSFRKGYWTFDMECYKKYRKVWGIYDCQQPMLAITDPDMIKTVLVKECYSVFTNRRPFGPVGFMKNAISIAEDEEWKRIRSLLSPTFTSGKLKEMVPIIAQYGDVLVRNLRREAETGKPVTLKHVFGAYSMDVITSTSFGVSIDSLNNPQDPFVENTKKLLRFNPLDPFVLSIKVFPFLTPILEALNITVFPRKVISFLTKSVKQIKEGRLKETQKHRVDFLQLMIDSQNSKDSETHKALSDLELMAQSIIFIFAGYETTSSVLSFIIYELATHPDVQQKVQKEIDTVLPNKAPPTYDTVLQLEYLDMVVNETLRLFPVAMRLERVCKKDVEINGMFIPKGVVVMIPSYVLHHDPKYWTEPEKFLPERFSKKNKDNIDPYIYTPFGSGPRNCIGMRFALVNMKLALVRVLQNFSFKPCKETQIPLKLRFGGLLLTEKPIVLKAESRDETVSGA
T2 sequence (P11712 whole entry): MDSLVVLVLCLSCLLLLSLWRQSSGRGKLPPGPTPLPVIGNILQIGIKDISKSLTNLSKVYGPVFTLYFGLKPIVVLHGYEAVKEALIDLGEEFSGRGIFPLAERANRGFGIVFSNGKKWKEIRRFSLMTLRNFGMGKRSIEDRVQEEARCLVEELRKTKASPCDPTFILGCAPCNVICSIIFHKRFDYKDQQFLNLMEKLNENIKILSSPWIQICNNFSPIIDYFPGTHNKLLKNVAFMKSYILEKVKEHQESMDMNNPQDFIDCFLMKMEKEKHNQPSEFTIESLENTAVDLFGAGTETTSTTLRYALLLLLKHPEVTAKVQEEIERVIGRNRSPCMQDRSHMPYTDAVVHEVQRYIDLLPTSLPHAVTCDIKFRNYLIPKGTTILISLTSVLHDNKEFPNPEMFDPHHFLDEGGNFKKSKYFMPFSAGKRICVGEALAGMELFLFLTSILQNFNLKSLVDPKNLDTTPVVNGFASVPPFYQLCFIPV
T7 sequence (P10635 whole entry): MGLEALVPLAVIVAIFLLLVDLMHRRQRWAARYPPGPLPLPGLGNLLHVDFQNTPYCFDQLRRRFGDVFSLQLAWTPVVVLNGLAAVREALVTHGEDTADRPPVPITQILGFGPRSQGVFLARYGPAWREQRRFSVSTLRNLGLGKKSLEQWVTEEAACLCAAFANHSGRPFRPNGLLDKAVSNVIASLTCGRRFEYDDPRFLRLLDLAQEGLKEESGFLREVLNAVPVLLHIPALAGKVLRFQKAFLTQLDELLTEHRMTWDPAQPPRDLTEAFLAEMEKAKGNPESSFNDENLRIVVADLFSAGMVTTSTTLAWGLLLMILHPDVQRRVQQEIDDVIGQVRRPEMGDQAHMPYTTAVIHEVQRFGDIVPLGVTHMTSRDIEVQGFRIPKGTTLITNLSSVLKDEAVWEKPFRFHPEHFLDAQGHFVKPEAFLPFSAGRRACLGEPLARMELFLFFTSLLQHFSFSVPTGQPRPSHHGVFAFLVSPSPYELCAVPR
T6 sequence (P33261 whole entry): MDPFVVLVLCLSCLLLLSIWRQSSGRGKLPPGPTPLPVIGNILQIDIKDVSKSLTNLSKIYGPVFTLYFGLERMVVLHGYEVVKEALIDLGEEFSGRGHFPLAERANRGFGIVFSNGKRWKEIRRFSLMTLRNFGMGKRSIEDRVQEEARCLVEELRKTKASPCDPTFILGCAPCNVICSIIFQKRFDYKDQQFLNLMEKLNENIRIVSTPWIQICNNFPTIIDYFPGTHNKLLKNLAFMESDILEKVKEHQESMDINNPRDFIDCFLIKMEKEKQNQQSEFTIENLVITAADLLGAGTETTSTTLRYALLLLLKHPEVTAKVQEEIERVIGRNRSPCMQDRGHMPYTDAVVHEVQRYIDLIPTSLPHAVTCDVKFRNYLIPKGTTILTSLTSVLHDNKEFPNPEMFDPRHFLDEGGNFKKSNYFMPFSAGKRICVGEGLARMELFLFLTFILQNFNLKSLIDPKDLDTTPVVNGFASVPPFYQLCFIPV

- substrate for carboxylesterases in a two step luminescent assay format (porcine esterase): effective
Molecule: COC(=O)[C@H]1CSC(c2nc3ccc(O)cc3s2)=N1 [D-luciferin methyl ester]

- P450 activity / selectivity with the derivative as substrate (CYP3A7): cross reacted significantly
Molecule: O=C(O)[C@H]1CSC(c2nc3ccc(OCc4cccnc4)cc3s2)=N1 [luciferin 6' 3-picolinyl ether, reference compound]

- substrate for carboxylesterases in a two step luminescent assay format (porcine esterase): effective
Molecule: CCOC(=O)[C@H]1CSC(c2nc3ccc(O)cc3s2)=N1 [D-luciferin ethyl ester]

- P450 activity / selectivity with the derivative as substrate (CYP1A2): enhanced selectivity
- P450 activity / selectivity with the derivative as substrate (CYP1A2; listed as line 12): preferred substrate
- P450 activity / selectivity with the derivative as substrate (CYP2C9): enhanced selectivity
- P450 activity / selectivity with the derivative as substrate (CYP2C9; listed as line 12): preferred substrate
- P450 activity / selectivity with the derivative as substrate (CYP4A11): did not react
- P450 activity / selectivity with the derivative as substrate (CYP1A1): preferred substrate
- P450 activity / selectivity with the derivative as substrate (CYP2C8): enhanced selectivity
- P450 activity / selectivity with the derivative as substrate (CYP2C8; listed as line 12): preferred substrate
Molecule: COc1cc(OC)c2nc(C3=NC(C(=O)O)CS3)sc2c1 (centres unmarked) [4-(O-methyl)-6-(O-methyl)-luciferin]

- P450 activity / selectivity with the derivative as substrate (CYP1A2): enhanced selectivity
- P450 activity / selectivity with the derivative as substrate (CYP1A2; listed as line 11): preferred substrate
- P450 activity / selectivity with the derivative as substrate (CYP2C9): enhanced selectivity
- P450 activity / selectivity with the derivative as substrate (CYP2C9; listed as line 11): preferred substrate
- P450 activity / selectivity with the derivative as substrate (CYP4A11): did not react
- P450 activity / selectivity with the derivative as substrate (CYP1A1): preferred substrate
- P450 activity / selectivity with the derivative as substrate (CYP2C8): enhanced selectivity
- P450 activity / selectivity with the derivative as substrate (CYP2C8; listed as line 11): preferred substrate
Molecule: COc1cc(C)c2nc(C3=NC(C(=O)O)CS3)sc2c1 (centres unmarked) [4-methyl-6-(O-methyl)-luciferin]

- P450 activity / selectivity with the derivative as substrate (CYP2C19): some activity
- P450 activity / selectivity with the derivative as substrate (CYP2D6): extremely low activity
- P450 activity / selectivity with the derivative as substrate (CYP2D6; listed as Luciferin 6-methyl ether): some activity
- light emission values (QuantiLum Luciferase; Derivative Conc. 1.07, Alone): 1197
- light emission values (QuantiLum Luciferase; Derivative Conc. 1.07, Co A): 1523
- light emission values (QuantiLum Luciferase; Derivative Conc. 1.07, Co A + DTT): 3180
- light emission values (QuantiLum Luciferase; Derivative Conc. 1.07, DTT): 3160
- light emission values (QuantiLum Luciferase; Derivative Conc. 3.13, Alone): 1053
- light emission values (QuantiLum Luciferase; Derivative Conc. 3.13, Co A): 1360
- light emission values (QuantiLum Luciferase; Derivative Conc. 3.13, Co A + DTT): 2853
- light emission values (QuantiLum Luciferase; Derivative Conc. 3.13, DTT): 3332
- light emission values (QuantiLum Luciferase; Derivative Conc. 6.25, Alone): 1240
- light emission values (QuantiLum Luciferase; Derivative Conc. 6.25, Co A): 1673
- light emission values (QuantiLum Luciferase; Derivative Conc. 6.25, Co A + DTT): 2882
- light emission values (QuantiLum Luciferase; Derivative Conc. 6.25, DTT): 2844
- light emission values (QuantiLum Luciferase; Derivative Conc. 12.5, Alone): 1563
- light emission values (QuantiLum Luciferase; Derivative Conc. 12.5, Co A): 1768
- light emission values (QuantiLum Luciferase; Derivative Conc. 12.5, Co A + DTT): 2510
- light emission values (QuantiLum Luciferase; Derivative Conc. 12.5, DTT): 2961
- light emission values (QuantiLum Luciferase; Derivative Conc. 25, Alone): 2083
- light emission values (QuantiLum Luciferase; Derivative Conc. 25, Co A): 2224
- light emission values (QuantiLum Luciferase; Derivative Conc. 25, Co A + DTT): 2992
- light emission values (QuantiLum Luciferase; Derivative Conc. 25, DTT): 3491
- light emission values (QuantiLum Luciferase; Derivative Conc. 50, Alone): 2690
- light emission values (QuantiLum Luciferase; Derivative Conc. 50, Co A): 2704
- light emission values (QuantiLum Luciferase; Derivative Conc. 50, Co A + DTT): 3635
- light emission values (QuantiLum Luciferase; Derivative Conc. 50, DTT): 4052
- light emission values (QuantiLum Luciferase; Derivative Conc. 100, Alone): 3589
- light emission values (QuantiLum Luciferase; Derivative Conc. 100, Co A): 3389
- light emission values (QuantiLum Luciferase; Derivative Conc. 100, Co A + DTT): 4550
- light emission values (QuantiLum Luciferase; Derivative Conc. 100, DTT): 5399
Molecule: COc1ccc2nc(C3=N[C@@H](C(=O)O)CS3)sc2c1 [luciferin 6-methyl ether, D-luciferin 6' methyl ether, reference compound]

- P450 activity / selectivity with the derivative as substrate (CYP3A7): showed selectivity
Molecule: O=C(O)[C@H]1CSC(c2nc3ccc(OCSc4ccc(Cl)cc4)cc3s2)=N1 [6'-p-chlorophenylthiol-methoxy-luciferin, 6-(4-Chloro-phenylthiomethoxy) luciferin]

- substrate for carboxylesterases in a two step luminescent assay format (porcine esterase): effective
Molecule: O=C(OCc1cccnc1)[C@H]1CSC(c2nc3ccc(O)cc3s2)=N1 [D-luciferin picolinyl ester, m-picolinyl ester of luciferin]

- P450 activity / selectivity with the derivative as substrate (CYP3A7): selective
Molecule: bis-luciferin-xylyldiether
